Measurements: patent US9301923B2, “Lipids, lipid compositions, and methods of using them” (NOVARTIS AG, priority 2009, dated 2016)

What was measured:
[1] = tested on: PLK-1 mRNA in HepG2 tumors; assay: HepG2 tumor study, PLK-1 mRNA KD in tumor tissue; type: in vivo, human; conditions: Mus musculus, HepG2, iv, 24 h, HepG2 tumor in nude mice, 3 × 3 mg/kg siRNA iv, tumors harvested 24 hrs after the last dose; read-out: PLK1 % inhibition
Source text: (§1) Formulated siRNAs are made up of double stranded siRNA sequences specific to a target mRNA sequence, and are in the form of lipid nucleotid particles (LNPs) containing cationic lipids, stealth lipids and neutral lipids, as provided in the Examples below. The siRNA construct for use in targeting the liver is specific to Factor VII. The siRNA construct for use in targeting tumors is specific to PLK1-424, which is published by Judge et al., See, J Clin Invest. 2009 March; 119(3):661-73; doi: 10.1172/JCI37515). • 1. FVII siRNA duplex sequence
HepG2 tumors are established in female nude mice by sc injection of 5×10^6 cells in 100 ul PBS into the left flank. Mice are randomized into treatment groups 10-14 days after seeding as tumors reached an average size of 150 mm^3. siRNA formulated LNP formulations are administered at 3×3 mg/kg dose levels intravenously via the lateral tail vein calculated on a mg siRNAs/kg basis according to individual animal weights (10 ml/kg injection volume). Mice are euthanized by CO2 inhalation at various time points and the tumors are harvested 24 hrs after the last dose for mRNA quantitation. Lipids with a wide range of pKa (5.3-6.6) are used in the LNP formulations. Tumors are measured in 2 dimensions (width×length) to assess tumor growth using digital calipers. Tumor volume is calculated using the equation [a×b×b/2], where a=largest diameter and b=smallest diameter.
About 30-50 mg tumor tissue is homogenized in tissue lysis buffer in a Qiagen homogenizer followed by centrifugation to clarify lysates. Total RNA is isolated using RNeasy isolation kit (catalog number 74106) according to the manufacture's protocol. PLK-1 mRNA is analyzed by quantitative PCR and normalized to human GAPDH. Applied Biosystems human PLK-1 gene expression assay Hs00983229_m1 and human GAPDH endogenous control cat number 4326317E are used for mRNA detection.
The pKa in all tables refers to the pKa of the cationic lipid. Where multiple doses are indicated (e.g., 3×5), the first number indicates the number of doses given and the second number indicates the amount per dose in mg siRNA (biologically active agent) per kg mouse. In general the multiple doses are administered at 24 hour intervals, and tissues for mRNA quantitation are harvested 24 hours after the last dose.

[2] = Particle size and PDI by dynamic light scattering (Malvern Zetasizer); type: physicochemical; parameters: Final size: unit not given here; conditions: for Final size: LNP formulation
How it was run: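 Nanoparticles diluted in PBS to a count rate of about 200-400 kcts and measured by dynamic light scattering; size given as intensity-weighted average diameter, with polydispersity index from the same measurement.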

Factor VII = Factor VII activity assay, in vivo liver delivery of FVII siRNA LNP; parameters: species or system mouse; conditions: dose 1 mg/kg siRNA i.v., ~48 h; lipid/no neutral lipid/CHOL/GM-020 NOF 60/0/36/4, N/P 3
How it was run: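 Female CD-1 mice (~25 g) given a single i.v. tail-vein dose of FVII siRNA in LNPs (cationic, stealth, neutral lipids), dosed as mg siRNA/kg. Plasma collected ~48 h post-injection; FVII activity read against a standard curve from pooled vehicle-control plasma.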

[3] = tested on: PLK-1 mRNA in Hep3B tumors; assay: Hep3B tumor study, PLK-1 mRNA KD in tumor tissue; type: in vivo, human; conditions: for PLK1 inhibition %: Hep3B tumor, mouse, i.v., LNP composition as in the source; for % KD: Table 9 experiment
[4] = pKa of the lipid by TNS fluorescence; type: physicochemical; conditions: pKa
How it was run: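 Lipid dissolved in ethanol (2 mM stock) and measured with TNS across eight buffers of differing pH, in water at standard temperature and pressure. Normalized fluorescence intensity plotted against pH and points joined by a smooth line to derive pKa, precise to about 0.2 units.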

[5] = tested on: PLK-1 mRNA in 786-0 tumors; assay: 786-0 renal tumor study, PLK-1 mRNA KD in tumor tissue; type: in vivo, human; conditions: tumors collected 48 hrs after the single dose, read-out: PLKI % Inhibition
Source text: as §1
786-0 tumors are established as described before by sc injection of 10×10^6 cells in 200 ul PBS. 4 weeks post implantation, the mice with the tumor size ranging from 200-250 mm^3 are randomized into treatment groups. siRNA formulated LNPs are then intravenously administered at either 5 or 10 mg/kg dose levels. 48 hrs after the single dose, tumors are collected for mRNA quantitation.
About 30-50 mg tumor tissue is homogenized in tissue lysis buffer in a Qiagen homogenizer followed by centrifugation to clarify lysates. […] PLK-1 mRNA is analyzed by quantitative PCR and normalized to human GAPDH. […]
The pKa in all tables refers to the pKa of the cationic lipid. […] In general the multiple doses are administered at 24 hour intervals, and tissues for mRNA quantitation are harvested 24 hours after the last dose.

[6] = LNP formulation with PLK1 siRNA, helper, neutral and stealth lipid, molar ratio and N/P as in the table, stealth lipid S004, molar ratio 50/48/2, N/P 4
[7] = lipid/no neutral lipid/CHOL/GM-020 NOF 60/0/36/4, N/P 3

Structure (SMILES)	inhibition at 3 mg/kg [1]	Final size (nm) ([2]; LNP formulation with PLK1 siRNA, helper, neutral and stealth lipid, molar ratio and N/P as in the table, stealth lipid S004, molar ratio 45/43/10/2, N/P 4)	Final size (nm) [2, 6]	Final size (nm) ([2]; LNP formulation with PLK1 siRNA, helper, neutral and stealth lipid, molar ratio and N/P as in the table, stealth lipid S011, molar ratio 60/38/2, N/P 4)	Final size ([2]; Table 10)	Final size (nm) [2, 7]	PDI [2, 7]	FVII inhib % (Factor VII)	PLK1 inhibition % ([3]; 1 × 0.1 mg siRNA/kg)	PLK1 inhibition % ([3]; 1 × 5 mg siRNA/kg)	pKa [4]	Final size ([2]; Table 11, lipid molar ratio 45/43/10/2)	Final size ([2]; Table 11, lipid molar ratio 50/48/2)	PLK1 inhibition % ([3]; 1 × 1 mg siRNA/kg, stealth lipid S004, molar ratio 50/48/2, N/P 3)	PLK1 inhibition % ([3]; 1 × 1 mg siRNA/kg, stealth lipid S004, molar ratio 50/48/2, N/P 4)	inhibition at 5 mg/kg ([5]; 1 × 5 mg/kg iv)	inhibition at 10 mg/kg ([5]; 1 × 10 mg/kg iv)	Final size (nm) ([2]; LNP formulation with PLK1 siRNA, helper, neutral and stealth lipid, molar ratio and N/P as in the table, stealth lipid S004, molar ratio 50/43/5/2, N/P 4)	% KD ([3]; 0.1 mg/kg)	% KD ([3]; 1.0 mg/kg)
CCCCC/C=C\C/C=C\CCCCCCCCOCC(CN1CCCCC1)OCCO[C@H]1CC[C@@]2(C)C(=CC[C@H]3[C@@H]4CC[C@H]([C@H](C)CCCC(C)C)[C@@]4(C)CC[C@@H]32)C1 (stereo partly drawn) [E0076]	35%	80.98 nm	86.03 nm	89.89 nm	86.03	89.47 nm	0.143	29.3%	0%	85%	5.85									
CCCCC/C=C\C/C=C\CCCCCCCCOCC(CN1CCCCC1)OCCOC(=O)CCC(=O)O[C@H]1CC[C@@]2(C)C(=CC[C@H]3[C@@H]4CC[C@H]([C@H](C)CCCC(C)C)[C@@]4(C)CC[C@@H]32)C1 (stereo partly drawn) [E0104]	32%										6.1	87.59	95.05	48%	50%	55%	50%			
CCCCCCCC/C=C\CCCCCCCCOCC(CN1CCCCC1)OCCCOC(=O)CCC(=O)O[C@H]1CC[C@@]2(C)C(=CC[C@H]3[C@@H]4CC[C@H]([C@H](C)CCCC(C)C)[C@@]4(C)CC[C@@H]32)C1 (stereo partly drawn) [E0178]	0%		88.39 nm		94.67				0%		5.92							94.67 nm	0%	35%
